Test results as given in US5908868A, “Retinol derivatives useful for enhancing immune response” (priority 1995, dated 1999).
“Also recorded” adds a separate entry of the source.

Tests used:
lymph node T cells = experiment: Proliferation of anti-CD3 activated lymph node T cells; format: cell-based, BALB/c mouse; conditions: anti-CD3
Excerpt: Growth curves of lymph node T cells depleted of antigen-presenting cells (FIG. 17A) with and without 10^-6 M retinol at 2×10^5 and 5×10^4 cells/well. (FIG. 17B) Dose-responses elicited by different retinoids in cultures of lymph node T cells depleted of antigen-presenting cells. Also shown are the growth curves of CD4^+ (FIG. 17C) and CD8^+ T lymphocytes (FIG. 17D) in the presence of either retinol, 14HRR, human serum or in their absence.
T lymphocytes, purified as described, 5×10^4 well, were activated with immobilized anti-CD3 antibody in ITLB medium. The indicated amounts of retinoids or human serum were added at initiation of cultures. […] 14HRR was added every 12 hours. DNA synthesis was measured by a 4 hour pulse with tritiated thymidine. SDs were ≤17%.
Mature T cells were obtained from pooled intestinal, axillary, inguinal and submandibular lymph nodes of 4 to 10-week-old BALB/c mice. To fractionate cells into CD4 and CD8 subsets and at the same time remove APC, a combination of adherence and complement lysis was used as follows:
Cells were cultured in serum-free medium, referred to as ITLB, containing RPMI 1640 supplemented with 8×10^-7 M insulin (5 μg/ml), 7×10^-8 M transferrin (5 μg/ml), 2×10^-6 M linoleic acid, 2×10^-6 M delipidated BSA (0.12 mg/ml), 2 mM L-glutamine, 1 mM sodium pyruvate and antibiotics. They were seeded into 96-well flat-bottom plates at varying cellular densities in a final volume of 100 μl. In control experiments, cells were cultured in medium containing 10% FCS or 3% human serum and 5×10^-5 M 2 ME. T cells and thymocytes were activated with immobilized, purified anti-mab CD3e or by the addition of Con A in the presence or absence of different concentrations of retinoids. Unless indicated otherwise, retinoids were replenished every 12 hours to maintain a reasonably constant concentration of these labile compounds in culture. The optimal concentration for stimulation of T cells was determined for each batch of anti-CD3 mAb and Con A. The optimal range of Con A was particularly narrow in serum-free medium (0.5-0.2 μg/ml) and varied with the cell density used. […] Cultures were carried out in duplicate. Plates were incubated at 37° C. in a humidified 5% CO2 atmosphere. Cellular proliferation was determined by [^3 H] thymidine uptake (0.5 uCi/well; New England Nuclear, Boston, Mass.) after the incubation times indicated for each experiment with a 4 hour labeling pulse. Cells were harvested onto glass filter and [^3 H]TdR incorporation was determined by liquid scintillation counting. The data presented are the means of duplicate or six replicate cultures. The restriction to duplicate measurements was necessary to conserve scarce 14HRR. They were within 20% of each other. Each experiment was repeated at least twice.

thymocytes = experiment: Proliferation of anti-CD3e activated thymocytes in serum-free medium; format: cell-based, BALB/c mouse; conditions: for proliferative response: anti-CD3, retinol 3×10^-6 M or 14HRR 6×10^-7 M; for growth over a four day period: retinol 3×10^-6 M, 14HRR 6×10^-7 M, human serum 3%
Description: FIG. 14A: Purified BALB/c thymocytes were activated with immobilized anti-CD3e antibody and cultivated for four days in ITLB medium with or without retinol (3×10^-6 M), 14HRR (6×10^-7 M) (fresh 14HRR was added every 12 hours), human serum (3%) or FCS (10%) at the cellular densities shown. Proliferation was assayed by tritiated thymidine incorporation into cellular DNA. The SDs were below 20%.
FIG. 14B: BALB/c thymocytes (10^6 /ml) were added to microtiter plates coated with titrated amounts of anti-CD3e antibody with […] retinol or without, as indicated. Proliferation was measured in hexaduplicate wells on day 3 by ^3 H thymidine incorporation assay.
FIG. 14C: BALB/c thymocytes (3×10^6 /ml) were activated with anti-CD3e mAb as FIG. 1A. The total number of viable cells was determined by counting trypan blue-excluding cells, and those of blast cells by counting viable large cells in six replicate wells. Because of the relatively low cell density required in the culture (see FIG. 14A), the numbers reported for blast cells are best estimates.
Purified thymocytes (5×10^5 cells/well) were stimulated by TCR crosslinking with immobilized anti-CD3e antibody (FIG. 15A) or 0.4 μg/ml Con A (FIG. 15B) in serum-free ITLB medium. The indicated amounts of retinoids were added either once at the beginning of the experiment (marked as "1x") or every 12 hours thereafter (marked as "6x"). DNA synthesis was measured after 72 hours by tritiated thymidine uptake as described.
Purified thymocytes (10^5 cells/well) were activated with anti-CD3 antibody in ITLB medium with or without retinol (3×10^-6 M), 14HRR (6×10^-7, added every 12 hours or human serum (3%)). DNA synthesis was measured daily by a 4 hour pulse of tritiated thymidine. SDs were ≤12%.
Thymocytes (5×10^4 /well) were activated by immobilized anti-CD3 mAb in medium ITLB. Retinol (2×10^-6 M) was added at initiation of culture, or delayed by 12 hours and 24 hours, respectively, or omitted altogether. ^3 H thymidine pulses of 4 hours were used to measure DNA synthesis of hexaduplicate wells. (SDs were 20% or less.)
Thymuses of 3 to 6-week-old BALB/c mice were teased in serum-free RPMI medium supplemented with 1% BSA, 10^-6 M linoleic acid and antibiotics. Depletion of accessory cells was achieved by two cycles of complement-dependent lysis with a mixture of anti-IA^d (5 μg/ml) and anti-Itd (1:500 diluted ascites fluid). Briefly, cells were incubated on ice for 30 minutes with Ia antibodies, spun down, resuspended in 1:40 diluted rabbit complement, and incubated at 37° C. for 45 minutes. Incubations and two subsequent washes were carried out with RPMI medium containing 1% BSA. Cell viability was evaluated by trypan blue dye exclusion. To determine the extent of depletion of accessory cells, samples were stained with FITC-conjugated anti-Fc receptor antibody and analyzed by flow cytometry on a FACScan instrument (Becton Dickinson). No FcR-bearing cells were detected by this procedure.
Cells were cultured in serum-free medium, referred to as ITLB, containing RPMI 1640 supplemented with 8×10^-7 M insulin (5 μg/ml), 7×10^-8 M transferrin (5 μg/ml), 2×10^-6 M linoleic acid, 2×10^-6 M delipidated BSA (0.12 mg/ml), 2 mM L-glutamine, 1 mM sodium pyruvate and antibiotics. They were seeded into 96-well flat-bottom plates at varying cellular densities in a final volume of 100 μl. In control experiments, cells were cultured in medium containing 10% FCS or 3% human serum and 5×10^-5 M 2 ME. T cells and thymocytes were activated with immobilized, purified anti-mab CD3e or by the addition of Con A in the presence or absence of different concentrations of retinoids. Unless indicated otherwise, retinoids were replenished every 12 hours to maintain a reasonably constant concentration of these labile compounds in culture. […]

## CC(C=CC=C(C)C(O)CO)=CC=C1C(C)=CCCC1(C)C (centres unmarked) [14HRR, 14-hydroxy-4,14-retro-retinol]
Lymph node T cells
  stimulation of lymph node T cells: effective over the same dose range as observed for thymocytes
thymocytes
  proliferative response: vigorous responses were elicited
  growth over a four day period: exponential growth
thymocytes; provided at 12 hour intervals
  potency relative to retinol in supporting T cell proliferation: as potent as retinol
thymocytes; single addition
  effect of a single addition at initiation of culture: ineffective; also recorded: does not enable sustained proliferation; also recorded: insufficient to drive T cell proliferation

## CC1=C(/C=C/C(C)=C/C=C/C(C)=C/CO)C(C)(C)CCC1 [retinol, all-trans retinol]
Lymph node T cells
  stimulation of lymph node T cells: dependent on the presence of retinol
thymocytes
  proliferative response: vigorous responses were elicited
  growth over a four day period: exponential growth
thymocytes; no delay
  response when supplied together with activation signal: highest responses
thymocytes; replenished twice daily, 3-day culture
  reduction of sufficient retinol concentration on repeated feeding: five- to ten-fold lower
thymocytes; retinol by itself
  viability: maintain a higher state of viability than anti-CD3e "only" stimulation, or omission of test reagents altogether
thymocytes; retinol delayed 12 hours
  effect of 12-hour delay in addition: stagnation
thymocytes; retinol delayed by 24 hours
  effect of delayed addition: complete failure of activation
thymocytes; retinol on its own
  T cell activation: no discernible T cell activation
